# Results taken from ChEMBL document CHEMBL4000146, “Synthesis, antiplasmodial activity and mechanistic studies of pyrimidine-5-carbonitrile and quinoline hybrids” (Eur J Med Chem, 2015).
# Assays:
# [1] = Cytotoxicity against human HeLa cells assessed as alteration of normal cell morphology by microscopic analysis; format: cell-based
# [2] = Cytotoxicity against african green monkey Vero cells assessed as alteration of normal cell morphology by microscopic analysis; format: cell-based; conditions: chlorocebus sabaeus
# Human orthopneumovirus = format: functional, cell-based; conditions: human respiratory syncytial virus, HeLa
# [3] = tested on: Mammalian orthoreovirus 1; format: functional; conditions: Mammalian orthoreovirus 1, Vero
# Sindbis virus = format: functional; conditions: Vero
# Coxsackievirus [4] = format: functional; conditions: B4, Vero
# [5] = Cytotoxicity against MDCK cells assessed as inhibition of cell viability by colorimetric formazan-based MTS assay; design: species or system Canis lupus familiaris; conditions: dog
# Influenza A virus [6] = test: microbe, parasite or virus in culture; conditions: H1N1, MDCK
# Influenza A virus [7] = test: microbe, parasite or virus in culture; conditions: H3N2, MDCK
# Influenza B virus = test: microbe, parasite or virus in culture; conditions: MDCK
# L1210 = test: Cytotoxicity against mouse L1210 cells assessed as inhibition of cell proliferation by Coulter counter analysis; format: cell-based
# CCRF-CEM = test: Cytotoxicity against human CEM cells assessed as inhibition of cell proliferation by Coulter counter analysis; format: cell-based
# HeLa = test: Cytotoxicity against human HeLa cells assessed as inhibition of cell proliferation by Coulter counter analysis; format: cell-based
# [8] = Cytotoxicity against human HEL cells assessed as alteration of normal cell morphology by microscopic analysis; format: cell-based
# [9] = Cytotoxicity against human HEL cells assessed as inhibition of cell viability by colorimetric formazan-based MTS assay
# Human alphaherpesvirus 1 [10] = format: functional, cell-based; conditions: Human alphaherpesvirus 1, KOS, HEL
# Human alphaherpesvirus 2 = format: functional, cell-based; conditions: Human alphaherpesvirus 2, G, HEL
# Human alphaherpesvirus 1 [11] = format: functional, cell-based; conditions: Human alphaherpesvirus 1, KOS, HEL; remark: listed apart in the source
# unidentified adenovirus = format: functional, cell-based; conditions: HEL
# Coxsackievirus [12] = format: functional, cell-based; conditions: B4, HeLa
# Human respirovirus 3 = format: functional; conditions: Human respirovirus 3, Vero
# Punta Toro virus = format: functional; conditions: Vero
# Human betaherpesvirus 5 [13] = format: functional, cell-based; conditions: Human betaherpesvirus 5, AD169, HEL
# Human betaherpesvirus 5 [14] = format: functional, cell-based; conditions: Human betaherpesvirus 5, Davis, HEL
# Human alphaherpesvirus 3 [15] = format: functional, cell-based; conditions: Human alphaherpesvirus 3, strain Oka vaccine, HEL
# Human alphaherpesvirus 3 [16] = format: functional, cell-based; conditions: Human alphaherpesvirus 3, 07-1, HEL
# [17] = Cytotoxicity against MDCK cells assessed as alteration of normal cell morphology by microscopic analysis; format: cell-based, Canis lupus familiaris; conditions: dog
# Vaccinia virus = test: microbe, parasite or virus in culture; conditions: Orthopoxvirus vaccinia, HEL
# [18] = tested on: Vesicular stomatitis virus; test: microbe, parasite or virus in culture; conditions: HEL
# [19] = tested on: Vesicular stomatitis virus; test: microbe, parasite or virus in culture; conditions: HeLa
# Plasmodium falciparum [20] = test: Resistance index, ratio of IC50 for chloroquine-resistant asexual intraerythrocytic stage of Plasmodium falciparum Dd2 to IC50 for chloroquine-sensitive asexual intraerythrocytic stage of Plasmodium falciparum NF54; format: functional
# [21] = Selectivity index, ratio of IC50 for human HeLa cells to IC50 for chloroquine-sensitive asexual intraerythrocytic stage of Plasmodium falciparum NF54; format: toxicity, cell-based; conditions: read-out: Ratio IC50
# [22] = Selectivity index, ratio of IC50 for human HeLa cells to IC50 for chloroquine-resistant asexual intraerythrocytic stage of Plasmodium falciparum Dd2; format: toxicity, cell-based; conditions: read-out: Ratio IC50
# Plasmodium falciparum [23] = test: microbe, parasite or virus in culture; conditions: NF54
# Plasmodium falciparum [24] = test: microbe, parasite or virus in culture; conditions: Dd2
Structure (SMILES),MCC [1] [µM],MCC [2] [µM],EC50 (Human orthopneumovirus) [µM],EC50 [3] [µM],EC50 (Sindbis virus) [µM],EC50 (Coxsackievirus [4]) [µM],CC50 [5] [µM],EC50 (Influenza A virus [6]) [µM],EC50 (Influenza A virus [7]) [µM],EC50 (Influenza B virus) [µM],MCC [8] [µM],EC50 (Human alphaherpesvirus 1 [10]) [µM],EC50 (Human alphaherpesvirus 2) [µM],EC50 (Human alphaherpesvirus 1 [11]) [µM],EC50 (Human betaherpesvirus 5 [13]) [µM],EC50 (Human betaherpesvirus 5 [14]) [µM],EC50 (Human alphaherpesvirus 3 [15]) [µM],EC50 (Human alphaherpesvirus 3 [16]) [µM],EC50 (Vaccinia virus) [µM],EC50 [18] [µM],further results
NC(=O)c1ncn([C@@H]2O[C@H](CO)[C@@H](O)[C@H]2O)n1 [RIBAVIRIN],> 250,> 250,10,> 250,> 250,250,100,7.2 to 9,6.9 to 9,4 to 4.5,–,–,–,–,–,–,–,–,–,–,–
CCN(CC)CCCC(C)Nc1ccnc2cc(Cl)ccc12 (stereo not drawn) [CHLOROQUINE],> 100,> 100,> 100,> 100,> 100,> 100,55.6,> 20,> 20,> 20,≥ 20,> 20,> 20,> 20,> 20,> 4,> 4,> 4,> 20,> 20,IC50 (L1210): 15 µM; IC50 (CCRF-CEM): 23 µM; IC50 (HeLa): 18 µM; CC50 [9]: 58.5 µM; EC50 (unidentified adenovirus): > 20 µM; EC50 (Coxsackievirus [12]): > 100 µM; EC50 (Human respirovirus 3): > 100 µM; EC50 (Punta Toro virus): > 100 µM; MCC [17]: 100 µM; EC50 [19]: > 100 µM
CSc1nc(OCCCNc2ccnc3cc(Cl)ccc23)c(C#N)c(-c2ccccc2)n1,4,4,> 0.8,> 0.8,> 0.8,> 0.8,2.1,> 0.8,> 0.8,> 0.8,4,> 0.8,> 0.8,> 0.8,> 0.8,> 0.8,> 0.8,> 0.8,> 0.8,> 0.8,Ratio IC50 (Plasmodium falciparum [20]): 2.34; IC50 (L1210): 3.9 µM; IC50 (CCRF-CEM): 3.3 µM; IC50 (HeLa): 3.4 µM; selectivity ratio [21]: 38.3; selectivity ratio [22]: 16.3; CC50 [9]: 1.7 µM; EC50 (unidentified adenovirus): > 0.8 µM; EC50 (Coxsackievirus [12]): > 0.8 µM; EC50 (Human respirovirus 3): > 0.8 µM; EC50 (Punta Toro virus): > 0.8 µM; MCC [17]: 4 µM; IC50 (Plasmodium falciparum [23]): 0.0888 µM; IC50 (Plasmodium falciparum [24]): 0.208 µM; EC50 [19]: > 0.8 µM
CSc1nc(-c2ccc([N+](=O)[O-])cc2)c(C#N)c(N2CCN(c3ccnc4cc(Cl)ccc34)CC2)n1,> 100,100,> 100,> 20,> 20,> 20,> 100,> 100,> 100,> 100,≥ 100,> 100,> 100,> 100,> 100,> 100,> 100,> 100,> 100,> 100,Ratio IC50 (Plasmodium falciparum [20]): 0.8; IC50 (L1210): 206 µM; IC50 (CCRF-CEM): 156 µM; IC50 (HeLa): 228 µM; selectivity ratio [21]: 18.6; selectivity ratio [22]: 23.1; CC50 [9]: > 100 µM; EC50 (unidentified adenovirus): > 100 µM; EC50 (Coxsackievirus [12]): > 100 µM; EC50 (Human respirovirus 3): > 20 µM; EC50 (Punta Toro virus): > 20 µM; MCC [17]: > 100 µM; IC50 (Plasmodium falciparum [23]): 12.2 µM; IC50 (Plasmodium falciparum [24]): 9.86 µM; EC50 [19]: > 100 µM
CSc1nc(NCCCCNc2ccnc3cc(Cl)ccc23)c(C#N)c(-c2ccccc2)n1,100,20,> 20,> 4,> 4,> 4,10.7,> 4,> 4,> 4,4 to 20,> 0.8,> 0.8,> 0.8,> 4,> 4,> 4,> 4,> 0.8,> 0.8,Ratio IC50 (Plasmodium falciparum [20]): 2.71; IC50 (L1210): 4.4 µM; IC50 (CCRF-CEM): 5.2 µM; IC50 (HeLa): 8.5 µM; selectivity ratio [21]: 78.3; selectivity ratio [22]: 28.7; CC50 [9]: 8.2 µM; EC50 (unidentified adenovirus): > 4 µM; EC50 (Coxsackievirus [12]): > 20 µM; EC50 (Human respirovirus 3): > 4 µM; EC50 (Punta Toro virus): > 4 µM; MCC [17]: 20 µM; IC50 (Plasmodium falciparum [23]): 0.109 µM; IC50 (Plasmodium falciparum [24]): 0.295 µM; EC50 [19]: > 20 µM
CSc1nc(NCCCCNc2ccnc3cc(Cl)ccc23)c(C#N)c(-c2ccc(C)cc2)n1,100,20,> 20,> 4,> 4,> 4,9.9,> 4,> 4,> 4,20,> 4,> 4,> 4,> 4,> 4,> 4,> 4,> 4,> 4,Ratio IC50 (Plasmodium falciparum [20]): 4.54; IC50 (L1210): 4.3 µM; IC50 (CCRF-CEM): 4.9 µM; IC50 (HeLa): 5 µM; selectivity ratio [21]: 41.9; selectivity ratio [22]: 9.2; CC50 [9]: 8.2 µM; EC50 (unidentified adenovirus): > 4 µM; EC50 (Coxsackievirus [12]): > 20 µM; EC50 (Human respirovirus 3): > 4 µM; EC50 (Punta Toro virus): > 4 µM; MCC [17]: 20 µM; IC50 (Plasmodium falciparum [23]): 0.119 µM; IC50 (Plasmodium falciparum [24]): 0.543 µM; EC50 [19]: > 20 µM
COc1ccc(-c2nc(SC)nc(NCCCCNc3ccnc4cc(Cl)ccc34)c2C#N)cc1,20,20,> 4,> 4,> 4,> 4,10,> 4,> 4,> 4,4 to 20,> 0.8,> 0.8,> 0.8,> 4,> 4,> 4,> 4,> 0.8,> 0.8,Ratio IC50 (Plasmodium falciparum [20]): 13.92; IC50 (L1210): 3.2 µM; IC50 (CCRF-CEM): 2.7 µM; IC50 (HeLa): 3.4 µM; selectivity ratio [21]: 30.9; selectivity ratio [22]: 2.2; CC50 [9]: 7.9 µM; EC50 (unidentified adenovirus): > 4 µM; EC50 (Coxsackievirus [12]): > 4 µM; EC50 (Human respirovirus 3): > 4 µM; EC50 (Punta Toro virus): > 4 µM; MCC [17]: 20 µM; IC50 (Plasmodium falciparum [23]): 0.11 µM; IC50 (Plasmodium falciparum [24]): 1.53 µM; EC50 [19]: > 4 µM
N#Cc1c(NCCCCNc2ccnc3cc(Cl)ccc23)nc(N2CCOCC2)nc1-c1ccccc1,20,20,> 4,> 4,> 4,> 4,10.9,> 4,> 4,> 4,20,> 4,> 4,> 4,> 4,> 4,> 4,> 4,> 4,> 4,Ratio IC50 (Plasmodium falciparum [20]): 1.95; IC50 (L1210): 4.2 µM; IC50 (CCRF-CEM): 4.6 µM; IC50 (HeLa): 17 µM; selectivity ratio [21]: 86.3; selectivity ratio [22]: 44; CC50 [9]: 11.9 µM; EC50 (unidentified adenovirus): > 4 µM; EC50 (Coxsackievirus [12]): > 4 µM; EC50 (Human respirovirus 3): > 4 µM; EC50 (Punta Toro virus): > 4 µM; MCC [17]: 20 µM; IC50 (Plasmodium falciparum [23]): 0.198 µM; IC50 (Plasmodium falciparum [24]): 0.386 µM; EC50 [19]: > 4 µM
CSc1nc(NCCCNc2ccnc3cc(Cl)ccc23)c(C#N)c(-c2ccccc2)n1,100,100,> 20,> 20,> 20,> 20,10.3,> 4,> 4,> 4,20,> 4,> 4,> 4,> 4,> 4,> 4,> 4,> 4,> 4,Ratio IC50 (Plasmodium falciparum [20]): 2.38; IC50 (L1210): 4.7 µM; IC50 (CCRF-CEM): 4.7 µM; IC50 (HeLa): 11 µM; selectivity ratio [21]: 82.3; selectivity ratio [22]: 34.4; CC50 [9]: 43.4 µM; EC50 (unidentified adenovirus): > 20 µM; EC50 (Coxsackievirus [12]): > 20 µM; EC50 (Human respirovirus 3): > 20 µM; EC50 (Punta Toro virus): > 20 µM; MCC [17]: 20 µM; IC50 (Plasmodium falciparum [23]): 0.134 µM; IC50 (Plasmodium falciparum [24]): 0.319 µM; EC50 [19]: > 20 µM
C[C@H]1[C@H](OC(=O)CCC(=O)O)O[C@@H]2O[C@@]3(C)CC[C@H]4[C@H](C)CC[C@@H]1[C@@]24OO3 [ARTESUNATE],–,–,–,–,–,–,–,–,–,–,–,–,–,–,–,–,–,–,–,–,Ratio IC50 (Plasmodium falciparum [20]): 1.38; IC50 (Plasmodium falciparum [23]): 0.0126 µM; IC50 (Plasmodium falciparum [24]): 0.0174 µM
Nc1nc2c(ncn2COCCO)c(=O)[nH]1 [ACYCLOVIR],–,–,–,–,–,–,–,–,–,–,250 to 400,0.2,0.1,10,1.24,0.51,1.69,49.3,> 250,> 250,–
